Results on 7 substances are retold here after article PMC4195672, “The Red Imported Fire Ant (Solenopsis invicta Buren) Kept Y not F: Predicted sNPY Endogenous Ligands Deorphanize the Short NPF (sNPF) Receptor” (PLoS ONE, 2014).

Entries after “also recorded” stand apart in the source; their conditions may differ.

What is called EC50 is the concentration needed to bring the measured effect to its halfway point. A lower EC50 goes with an effect from little substance.

Test [1] has as its system S. invicta sNPF receptor (HA-tagged, stably expressed in CHO-K1 cells). Briefly: Inhibition of forskolin-stimulated intracellular cAMP in SisNPFR-C6E8 cell line (cAMP EIA). The test is classed as cell-based, Solenopsis invicta. Conditions: for Activity on the receptor (change of forskolin-stimulated cAMP), result in words: forskolin 10 µM, peptide at 1 µM (analogous sNP(F) tested at 10 nM and 1 µM), three biological replicates; for EC50: 50 µM Ro-20-1724, forskolin 10 µM with 0-10 µM peptide (10 concentrations), 1 h, 37°C, three independent biological replicates. On the procedure: For the functional characterization of S. invicta sNPFR, stably transformed cell lines were established as described. In brief, CHO-K1 cells were obtained from the American Type Culture Collection (ATCC, Manassas, VA, USA) and grown as described in a 5% CO2 humidified incubator at 37°C. For transfection, CHO-K1 cells were seeded into T-25 tissue culture flasks and allowed to grow overnight until 50% confluent. Cells were transfected in serum-free Opti-MEM medium (Life Technologies, Gaithersburg, MD, USA) with the cationic lipid reagent Lipofectin (Life Technologies) (6 µl) and 2 µg of the expression construct according to the manufacturer’s protocol. After 6 h, the lipofectin-containing medium was removed and replaced with F12K (Sigma, St. Louis, MO, USA) medium plus 10% fetal bovine serum (EquiTech Bio, Kerrville, TX, USA) without antibiotic. After 48 h of growth, the cells were split into the same medium but with antibiotic Geneticin (Invitrogen) (800 µg/ml), and selection continued for 5 weeks followed by isolation of clonal lines. A total of 14 clonal cell lines were obtained by dilution and selection of single cells distributed in a 96-well plate (96 theoretical single cells). Presence of S. invicta sNPFR transcript was verified by screening by RT-PCR by pooling aliquots from clonal cell lines. For this, total RNA was isolated by RNeasy Mini kit (Qiagen) and used for cDNA synthesis with SuperScript III First-Strand Synthesis System followed by RT-PCR with receptor forward sNPFRf1 and reverse sNPFRr1 primers (Table S1). The cell lines from groups that generated the RT-PCR product of the expected size were further screened. Single positive clonal cell lines were subjected to functional assay using S. invicta sNPF1 and sNPF2 as ligands. Cell line C6 was further selected to obtain a line designated SisNPFR-C6E8, which was the best performing cell line and was chosen for receptor functional characterization.
To quantify changes in intracellular cAMP, 1×10^5 cells of SisNPFR-C6E8 were seeded in each well of a 6-well plate and incubated at 37°C in presence of 5% CO2 for 24 h to allow cell attachment. Cell culture medium [F12 K medium with 10% fetal bovine serum and 400 µg/ml of Geneticin] was then replaced with the same fresh medium as above and the cells were grown for additional 48 h until they reached 90–100% confluence. The cells were rinsed twice with F12 K medium only (serum and antibiotic free) and then incubated in 50 µM Ro-20-1724 phosphodiesterase inhibitor (Santa Cruz Biotechnology, Santa Cruz, CA, USA) in F12 K medium. Forskolin (10 µM) (Cayman Chemical, Ann Arbor, MI, USA) or forskolin (10 µM) with 0–10 µM solutions of ligands (10 concentrations), respectively, were added to the cells and incubated at 37°C in the presence of 5% CO2 for 1 h. Cells were rinsed once with F12 K medium, serum- and antibiotic-free, followed by lysis with 274 µl of 0.1 M HCl at RT for 20 min and centrifugation at 1000 g for 10 min. The supernatant was used for cAMP measurements using the cyclic AMP EIA Kit (Cayman Chemical) following the manufacturer’s protocol. In brief, 50 µl of supernatants and cAMP standards were loaded in a 96-well plate, and the cAMP EIA buffer was used as blank. cAMP AChE tracer (50 µl) (cAMP bound to acetylcholinesterase for competition) and 50 µl of anti-cAMP specific antiserum were added. Then the mixture was incubated at 4°C for 18 h. The mixture was removed and the plate was rinsed five times with wash buffer containing 0.05% polysorbate-20. After washing, the plate was developed at RT for 2 h using the Ellman’s reagent and the OD (412 nm) was measured in a VersaMax tunable microplate reader (Molecular Devices, Sunnyvale, CA, USA). cAMP level was calculated using Cayman provided formulas and aided by software located at http://www.myassays.com/(MyAssays Ltd., Haywards Heath, West Sussex, UK) for the output standard line graph and cAMP concentration calculations. […]

The subject of test [2] is S. invicta sNPF receptor (SisNPFR-C6E8 cell line). Put plainly: Pilot study: stimulation of intracellular cAMP production in SisNPFR-C6E8 cell line. The test is classed as cell-based, Solenopsis invicta. Here is the method:
To quantify changes in intracellular cAMP, 1×10^5 cells of SisNPFR-C6E8 were seeded in each well of a 6-well plate and incubated at 37°C in presence of 5% CO2 for 24 h to allow cell attachment. Cell culture medium [F12 K medium with 10% fetal bovine serum and 400 µg/ml of Geneticin] was then replaced with the same fresh medium as above and the cells were grown for additional 48 h until they reached 90–100% confluence. The cells were rinsed twice with F12 K medium only (serum and antibiotic free) and then incubated in 50 µM Ro-20-1724 phosphodiesterase inhibitor (Santa Cruz Biotechnology, Santa Cruz, CA, USA) in F12 K medium. […] After washing, the plate was developed at RT for 2 h using the Ellman’s reagent and the OD (412 nm) was measured in a VersaMax tunable microplate reader (Molecular Devices, Sunnyvale, CA, USA). cAMP level was calculated using Cayman provided formulas and aided by software located at http://www.myassays.com/(MyAssays Ltd., Haywards Heath, West Sussex, UK) for the output standard line graph and cAMP concentration calculations. […] For this, the average absorbance readings for non-specific binding (NSB) and B0 wells were obtained, and the NSB average was deducted from the B0 average to generate the corrected B0 maximum binding value. […] The cAMP concentration of each sample was determined on the basis of the standard curve. […]

Consider “SLRSALAAGHLRFa [Analogous sNP(F), Analog of S. invicta sNPF1 with C-terminal amidated Y switched to F]”, for which the “Activity on the receptor (change of forskolin-stimulated cAMP), result in words” value in test [1] is given as “eliminates the ligand activity on the receptor”.
Regarding “AQRSPSLRLRFa [Drome sNPF1, Drosophila melanogaster sNPF peptide (AAN11060.1)]”, in test [1], the “Activity on the receptor (change of forskolin-stimulated cAMP), result in words” value is on record as “not active1 µM”.
Take SPSLRLRFa [Drome sNPF212–19]: the “Activity on the receptor (change of forskolin-stimulated cAMP), result in words” value in test [1] is “not active1 µM”.
On to “EPEPMARPTRPEIFTSPEELRRYIDHVSDYYLLSGKARYa [Apime NPY, Honey bee (A. mellifera) NPY, long NPF (NP_001161192.1), commercially synthesized]”, for which the “Activity on the receptor (change of forskolin-stimulated cAMP), result in words” value in test [1] was “failed to change the cAMP production; also recorded: not active1 µM”; in test [1] (listed as honey bee long NPF (NPY)), “not activated”.
As for “WFGDVNQKPIRSPSLRLRFa [Drome sNPF2, Drosophila melanogaster sNPF peptide (AAN11060.1)]”, in test [1], the “Activity on the receptor (change of forskolin-stimulated cAMP), result in words” value was “not active1 µM”.
As for SLRSALAAGHLRYa [S. invicta sNPF1], in test [2], the “Stimulation of intracellular cAMP production (without forskolin), result in words” value was “did not stimulate production of intracellular cAMP”. In test [1], a half-maximal effect (EC50) was put at 3.28 nM and the “Activity on the receptor (change of forskolin-stimulated cAMP), result in words” value was “decreased cAMP”.
With SALAAGHLRYa [S. invicta sNPF2], in test [2], the “Stimulation of intracellular cAMP production (without forskolin), result in words” value is “did not stimulate production of intracellular cAMP”. For the same substance, it took 8.6 nM to reach a half-maximal effect in test [1] (EC50).
